Test results reported in article PMC5322520, “TubZ filament assembly dynamics requires the flexible C-terminal tail” (Scientific Reports, 2017).

Assays:
CbTubZ316 = target: T1, CbTubZ316 (Clostridium phage c-st, UniProt Q331T7); details: nucleotide-binding pocket; crystals at pH 5.5, 22 °C
T1 construct: gene tubZ

BtTubZ = target: T2, BtTubZ (Bacillus thuringiensis, UniProt Q8KNP3); assay: HPLC of polymer-bound nucleotide; format: biochemical
T2 construct: gene tubZ; construct not described in main text; filaments
T2 sequence (Q8KNP3 whole entry): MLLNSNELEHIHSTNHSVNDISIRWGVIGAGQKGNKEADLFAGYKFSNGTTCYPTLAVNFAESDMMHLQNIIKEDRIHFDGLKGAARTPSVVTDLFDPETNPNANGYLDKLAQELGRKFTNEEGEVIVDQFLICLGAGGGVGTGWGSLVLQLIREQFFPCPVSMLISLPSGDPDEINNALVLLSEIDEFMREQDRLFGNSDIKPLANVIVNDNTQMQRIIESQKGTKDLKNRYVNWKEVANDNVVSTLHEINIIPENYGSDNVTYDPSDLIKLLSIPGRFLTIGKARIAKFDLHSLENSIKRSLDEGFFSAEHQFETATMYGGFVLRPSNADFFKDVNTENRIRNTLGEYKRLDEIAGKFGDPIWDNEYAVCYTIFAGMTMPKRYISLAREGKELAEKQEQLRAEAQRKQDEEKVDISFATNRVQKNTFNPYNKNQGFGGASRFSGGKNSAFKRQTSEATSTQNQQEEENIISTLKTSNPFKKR

T1 sequence (Q331T7 1-316 limits assumed): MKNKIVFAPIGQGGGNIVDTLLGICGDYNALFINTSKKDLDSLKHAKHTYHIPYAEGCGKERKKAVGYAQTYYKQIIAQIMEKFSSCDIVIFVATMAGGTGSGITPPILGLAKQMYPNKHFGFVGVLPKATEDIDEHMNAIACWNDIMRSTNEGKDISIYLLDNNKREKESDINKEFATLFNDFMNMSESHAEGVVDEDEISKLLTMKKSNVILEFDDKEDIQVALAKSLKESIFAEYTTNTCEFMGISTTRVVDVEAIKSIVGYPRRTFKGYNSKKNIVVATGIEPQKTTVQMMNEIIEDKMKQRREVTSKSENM

Compound: Nc1nc2c(ncn2[C@@H]2O[C@H](COP(=O)(O)OP(=O)(O)O)[C@@H](O)[C@H]2O)c(=O)[nH]1 [GDP]
- X-ray crystal structure, 2.4 Å (CbTubZ316): TubZ316 displays GDP at the nucleotide-binding pocket

Compound: Nc1nc2c(ncn2[C@@H]2O[C@H](COP(=O)(O)OP(=O)(O)OP(O)(O)=S)[C@@H](O)[C@H]2O)c(=O)[nH]1 [GTP-γ-S]
- HPLC of polymer-bound nucleotide (BtTubZ; filaments assembled with GTP-γ-S): nucleotide content of BtTubZ filaments assembled with GTP- γ-S and GTP

Compound: Nc1nc2c(ncn2[C@@H]2O[C@H](COP(=O)(O)OP(=O)(O)OP(=O)(O)O)[C@@H](O)[C@H]2O)c(=O)[nH]1 [GTP]
- HPLC of polymer-bound nucleotide (BtTubZ; filaments assembled with GTP): nucleotide content of BtTubZ filaments assembled with GTP- γ-S and GTP
